Data: patent US20060058383A1 (priority 2004, published 2006)

Legend:
[1] = system: human leukemia HL-60 cell line; assay: Depletion of cellular ATP pool (PCA extraction, HPLC); type: cell-based
Procedure: (§1) Cells were incubated with the indicated concentrations of S-Glycolycin or 3-BrPA for 12 h. Cellular ATP was extracted by 0.4 N PCA, neutralized with KOH, and quantified by HPLC analysis. […] Incubation of cells with 0.03 mM S-Glycolycin completely depleted cellular ATP in both cell lines, while it required a 10-fold greater concentration (0.3 mM) of 3-BrPA to achieve the same degree of ATP depletion.

[2] = system: respiration-deficient subclone HL-60/C6F cells; assay: as above; type: cell-based, human; settings: 12 h incubation
Procedure: as §1

[3] = system: HL-60 cells; assay: Induction of apoptosis, annexin-V/PI flow cytometry; type: cell-based, human; settings: 30 μM; 24 h
Procedure: HL-60 cells were incubated with the indicated concentrations of S-Glycolycin or 3-BrPA for 24 h. Apoptosis was measured by double staining with annexin-V and PI, followed by flow cytometry analysis. […] Incubation of HL-60 cells with 30 μM of S-Glycolycin caused more 90% cells to undergo apoptosis in 24 h, whereas the same concentration of 3-BrPA killed less than 20% of the cells within the same time period.

[4] = system: BAD phosphorylation (Ser112) in HL-60 cells; assay: BAD phosphorylation at Ser112, western blot; type: cell-based, human
Procedure: HL-60 cells were incubated with the indicated concentrations of each compound for 3 h. BAD and its phosphorylation at Ser112 were measured by western blot analysis, using the respective antibodies. β-Actin was also blotted as the protein loading control.
A time- and dose-dependent effect of S-Glycolycin on the expression level of pro-apoptotic factor BAD and its phosphorylation at Ser112 is provided in FIG. 18. HL-60 cells were incubated with the indicated concentrations of S-Glycolycin for various times. Total BAD protein and its phosphorylation at Ser112 were measured by western blot analysis using the respective antibodies. β-actin was also blotted as the protein loading control. […] Note that severe ATP depletion can be induced by S-Glycolycin at 30-50 μM, but not at 10 μM (FIG. 15).

[5] = system: HL-60/AR cells; assay: MTT cytotoxicity, drug-resistant clone versus parental cells; type: cell-based, human; settings: MTT assay
Procedure: HL-60 cell line and its drug-resistant clone HL-60/AR were incubated with the indicated concentrations of doxorubicin, vincristine, and 3-BrPA for 72 h. Cytotoxicity was measured by MTT assay. […] Based on the teachings provided herein, studies may be performed to determine the sensitivity of HL-60/AR cells to Glycolycin.
Ara-C, a drug commonly used in the frontline treatment of leukemia, was used in parallel experiments. Cytotoxicity was measured by MTT assay.

[6] = system: human brain tumor cells (U87MG); assay: MTT assay, 72 hour incubation; type: cell-based; settings: U-87 MG
Procedure: (§2) The effect of Glycolycin on human colon cancer cells (HCT116) and human brain tumor cells (U87MG) were tested using MTT assays for a 72 hour incubation. […] The IC50 value of S-Glycolycin for brain tumor U87MG cells is approximately 30 μM. […] This is of clinical significance, since the majority of human cancers are defective in p53 function and show reduced response to radiotherapy and certain anticancer agents.

[7] = system: human colon cancer cells (HCT116); assay: MTT assay, 72 hour incubation; type: cell-based; settings: HCT-116
Procedure: as §2

[8] = system: colon cancer cells without p53 expression; assay: Sensitivity of colon cancer cells without p53; type: cell-based, human; settings: separate experiment
Procedure: as §2

[9] = system: human colon cancer cells (HCT116); assay: Colony formation under hypoxic conditions, with radiation; type: cell-based
From the text: It is known in the art that under hypoxic conditions, cancer cells become less sensitive to radiation therapy, partially due to up-regulation of expression of survival factors and less generation of free radicals without oxygen. However, under hypoxic conditions cancer cells depend on glycolysis for generation of ATP, which is the essential energy source for repair of the DNA damage caused by radiation. Thus, it is contemplated that Glycolycin can effectively deplete cellular ATP pool under hypoxic conditions and enhance the therapeutic activity of radiation. […] Combination of Glycolycin and radiation almost completely killed all cells plated (up to 200,000 cells/well). Thus, Glycolycin is an effective agent to enhance the effectiveness of radiotherapy.

[10] = system: human lymphoma cells (Raji); assay: Sensitivity under hypoxic versus normoxic conditions, annexin-V/PI assay 24 h; type: cell-based; settings: 40 μM
Procedure: (Annexin-V/PI assay, 24 h)
Cancer cells in solid tumors have to adapt to the hypoxia environment due to insufficient blood supply. Under hypoxia conditions, cancer cells use the glycolytic pathway to generate ATP without consuming oxygen. This metabolic adaptation also renders cancer cells relatively resistant to anticancer agents and radiation therapy, partially due to up-regulation of expression of cell survival factors such as HIF-1α. […] However, because under hypoxia condition cancer cells dependent on glycolysis for generation of ATP, it is contemplated that such cancer cells are vulnerable to glycolytic inhibition by Glycolycin. […] Thus, it is envisioned that Glycolycin can be use for effective treatment of many solid tumors, either as a single agent or in combination with other anticancer agents.

[11] = system: HL-60 cells with high Bcl-2 expression; assay: MTT growth inhibition of Bcl-2 transfected cells; type: cell-based, human; settings: MTT assay
Procedure: Cell growth inhibition was measured by MTT assay.
Increased expression of the anti-apoptotic molecule Bcl-2 has been associated with drug resistance in cancer cells. The over-expression of Bcl-2 in HL-60 cells was […] against the cytotoxic effect of S-Glycolycin. […] Thus, Glycolycin may be used to overcome drug resistance due to Bcl-2 over expression.

[12] = system: parental HL-60 cells; assay: Effect of glutamine on cytotoxic activity, apoptosis at 24 h; type: cell-based, human; settings: 1 mM glutamine for 2 h
Procedure: (§3) The effect of glutamine on the cytotoxic activity of S-Glycolycin in wild-type HL-60 cells and respiration-deficient C6F cells was compared. Parental HL-60 cells were incubated with the indicated concentrations of S-Glycolycin in the presence or absence of 1 mM glutamine for 2 h, washed, and re-cultured in fresh medium. Apoptosis was measured at 24 h. […] In FIG. 26, the respiration-deficient cells (HL-60-C6F) were incubated with the indicated concentrations of S-Glycolycin in the presence or absence of 1 mM glutamine for 2 h, washed, and re-cultured in fresh medium. Apoptosis was measured at 24 h. Thus, glutamine supplement offers some degree of protection for cells with competent mitochondrial function.

[13] = system: respiration-deficient C6F cells (HL-60-C6F); assay: as above; type: cell-based, human; settings: 1 mM glutamine for 2 h
Procedure: as §3

[14] = system: primary CLL cells; assay: MTT assay in primary leukemia cells; type: cell-based, human
[15] = system: BAD phosphorylation in primary CLL cells; assay: BAD dephosphorylation in primary leukemia cells, western blot; type: cell-based, human

O=C(O)O.O=C([O-])C(=O)CBr.[Na+] [S-Glycolycin, Sodium 3-bromo-2-oxopropionate carbonic acid]
concentration that completely depleted cellular ATP ([1]; 12 h incubation, HL-60): 0.03 mM
concentration inducing severe ATP depletion ([1]; not at 10 μM): 30 to 50 µM
concentration that completely depleted cellular ATP [2]: 0.03 mM
cells undergoing apoptosis [3]: > 90%
change in BAD / phosphorylation at Ser112 ([4]; 10 μM): did not cause any significant change
change in BAD / phosphorylation at Ser112 ([4]; 50 μM): almost complete dephosphorylation
dephosphorylation of BAD, comparison ([4]; 3 h incubation): more effective than 3-BrPA
sensitivity of HL-60/AR compared to parental HL-60 cells [5]: equally sensitive
IC50 [6]: ~30 µM
IC50 [7]: 5 to 10 µM
sensitivity compared with p53-expressing colon cancer cells [8]: similarly sensitive
reduced colony formation ([9]; 40 μM in combination with radiation (6 Gy), hypoxic conditions): more than 99.9%
sensitivity under hypoxic conditions ([9]; drug alone, hypoxic versus normoxic): more sensitive
sensitivity under hypoxic versus normoxic conditions [10]: significantly more sensitive
sensitivity of Bcl-2 transfected cells compared to transfected control (Neo) [11]: remain sensitive
protection by glutamine from cytotoxic effect [12]: partial protection
protection by glutamine from cytotoxic effect [13]: no protection
killing CLL cells as measured by IC50 values, comparison [14]: more potent than 3-BrPA
BAD dephosphorylation, comparison [15]: more active than 3-BrPA
